In US20260256792A1, “TREATMENT OF CHRONIC SPONTANEOUS URTICARIA BY ADMINISTERING (R)-2-[3-[4-AMINO-3-(2-FLUORO-4-PHENOXY-PHENYL)PYRAZOLO[3,4-D]PYRIMIDIN-1-YL]PIPERIDINE-1-CARBONYL]-4-METHYL-4-[4-(OXETAN-3-YL)PIPERAZIN-1-YL]PENT-2-ENENITRILE” (priority 2023, published 2026):

System: moderate-to-severe chronic spontaneous urticaria (CSU)
Assay: Phase 2 CSU study: urticaria activity score over 7 days (UAS7)
Assay type: in vivo, human
Settings: Omalizumab-Naïve
From the text: The study comprises a 12 week, randomized, double-blind, placebo-controlled, multi-center, dose-ranging efficacy and safety phase, followed by a 40 week open label extension (OLE) phase (see FIG. 1). The study consists of three phases and an optional OLE phase. […] Clinically, CSU is characterized by the spontaneous and recurrent appearance of pruritic hives. The proposed primary endpoints were the UAS7 at Week 12 in EU and EU reference countries and the ISS7 in the US. Regardless of where a participant was from, all assessments were the same. The UAS7 score is a composite score containing both the HSS7 and the ISS7. This allowed a global assessment of the two key components of urticaria: hives and itch. […] The UAS is a validated PRO measure. […] The daily UAS scores range from 0 to 6 point/day. […] Patients were to complete the UAS using the e-diary. […] The following secondary endpoints were to be analyzed using the same approach as for the primary endpoint: • Change from baseline in UAS7 at Week 4 • Change from baseline in UAS7 at Week 12 (for US and US reference countries) • Change from baseline in ISS7 at Week 12 (except US and US reference countries) • Change from baseline in HSS7 at Week 12 The following responder secondary endpoints were to be analyzed using the Cochran-Mantel-Haenszel test adjusted by region: • Proportion of participants with UAS7<6 at Week 12 • Proportion of participants with UAS7=0 at Week 12 Participants who received selected prohibited medications and/or rescue medications were to be considered as non-responders for time points after the medication usage. For other participants, all available data including those collected during the off-treatment period were to be used to determine the responder/non-responder status. Missing data were to be considered as non-responders.

[1] = Baseline Eosinophils (10^9/L) ≥0.3, 400 mg BID
[2] = Baseline Eosinophils (10^9/L) ≥0.3, 400 mg QPM
[3] = Baseline Eosinophils (10^9/L) ≥0.3, 400 mg TID
[4] = Baseline H1-antihistamines dose 1-fold, 400 mg BID
[5] = Baseline H1-antihistamines dose 1-fold, 400 mg QPM
[6] = Baseline H1-antihistamines dose 1-fold, 400 mg TID
[7] = Baseline H1-antihistamines dose 2 to 4-fold standard dose, 400 mg BID
[8] = Baseline H1-antihistamines dose 2 to 4-fold standard dose, 400 mg QPM
[9] = Baseline H1-antihistamines dose 2 to 4-fold standard dose, 400 mg TID
[10] = Baseline ISS7 score <13, 400 mg BID
[11] = Baseline ISS7 score <13, 400 mg QPM
[12] = Baseline ISS7 score <13, 400 mg TID
[13] = Baseline ISS7 score ≥13, 400 mg BID
[14] = Baseline ISS7 score ≥13, 400 mg QPM
[15] = Baseline ISS7 score ≥13, 400 mg TID
[16] = Baseline Total IgE (IU/mL) <100, 400 mg BID
[17] = Baseline Total IgE (IU/mL) <100, 400 mg QPM
[18] = Baseline Total IgE (IU/mL) <100, 400 mg TID
[19] = Baseline Total IgE (IU/mL) <300, 400 mg BID
[20] = Baseline Total IgE (IU/mL) <300, 400 mg QPM
[21] = Baseline Total IgE (IU/mL) <300, 400 mg TID
[22] = Baseline Total IgE (IU/mL) ≥100, 400 mg BID
[23] = Baseline Total IgE (IU/mL) ≥100, 400 mg QPM
[24] = Baseline Total IgE (IU/mL) ≥100, 400 mg TID

## CC(C)(C=C(C#N)C(=O)N1CCC[C@@H](n2nc(-c3ccc(Oc4ccccc4)cc3F)c3c(N)ncnc32)C1)N1CCN(C2COC2)CC1 [rilzabrutinib, (R)-2-[3-[4-amino-3-(2-fluoro-4-phenoxy-phenyl)pyrazolo[3,4-d]pyrimidin-1-yl]piperidine-1-carbonyl]-4-methyl-4-[4-(oxetan-3-yl)piperazin-1-yl]pent-2-enenitrile]
Baseline Eosinophils (10^9/L) ≥0.165 (Median), 400 mg TID
  Change from Baseline in UAS7 at Week 12: Mean (SD): −16.50 (9.30)
[1]
  Change from Baseline in UAS7 at Week 12: LS Mean Diff vs. placebo (95% CI): −3.40 (−16.66, 9.86)
  Change from Baseline in UAS7 at Week 12: Mean (SD): −13.11 (12.32)
[2]
  Change from Baseline in UAS7 at Week 12: LS Mean (SE): −9.66 (4.84)
  Change from Baseline in UAS7 at Week 12: LS Mean Diff vs. placebo (95% CI): −2.00 (−16.22, 12.21)
  Change from Baseline in UAS7 at Week 12: Mean (SD): −9.69 (12.55)
[3]
  Change from Baseline in UAS7 at Week 12: LS Mean (SE): −13.16 (4.09)
  Change from Baseline in UAS7 at Week 12: LS Mean Diff vs. placebo (95% CI): −5.51 (−18.58, 7.57)
  Change from Baseline in UAS7 at Week 12: Mean (SD): −14.65 (7.48)
[4]
  Change from Baseline in UAS7 at Week 12: LS Mean (SE): −15.75 (3.11)
  Change from Baseline in UAS7 at Week 12: LS Mean Diff vs. placebo (95% CI): −3.48 (−11.69, 4.73)
  Change from Baseline in UAS7 at Week 12: Mean (SD): −18.22 (14.88)
[5]
  Change from Baseline in UAS7 at Week 12: LS Mean (SE): −7.64 (2.73)
  Change from Baseline in UAS7 at Week 12: LS Mean Diff vs. placebo (95% CI): 4.64 (−2.96, 12.23)
  Change from Baseline in UAS7 at Week 12: Mean (SD): −8.61 (9.50)
[6]
  Change from Baseline in UAS7 at Week 12: LS Mean (SE): −14.92 (2.59)
  Change from Baseline in UAS7 at Week 12: LS Mean Diff vs. placebo (95% CI): −2.65 (−10.05, 4.76)
[7]
  Change from Baseline in UAS7 at Week 12: LS Mean (SE): −12.98 (2.55)
  Change from Baseline in UAS7 at Week 12: LS Mean Diff vs. placebo (95% CI): −6.42 (−13.94, 1.10)
[8]
  Change from Baseline in UAS7 at Week 12: LS Mean (SE): −10.93 (2.77)
  Change from Baseline in UAS7 at Week 12: LS Mean Diff vs. placebo (95% CI): −4.37 (−12.30, 3.56)
  Change from Baseline in UAS7 at Week 12: Mean (SD): −12.81 (9.00)
[9]
  Change from Baseline in UAS7 at Week 12: LS Mean (SE): −20.96 (3.15)
  Change from Baseline in UAS7 at Week 12: LS Mean Diff vs. placebo (95% CI): −14.41 (−22.75, −6.07)
  Change from Baseline in UAS7 at Week 12: Mean (SD): −24.73 (10.10)
[10]
  Change from Baseline in UAS7 at Week 12: LS Mean (SE): −9.30 (4.02)
  Change from Baseline in UAS7 at Week 12: LS Mean Diff vs. placebo (95% CI): −4.39 (−14.52, 5.74)
  Change from Baseline in UAS7 at Week 12: Mean (SD): −10.78 (8.33)
[11]
  Change from Baseline in UAS7 at Week 12: LS Mean (SE): −3.27 (5.21)
  Change from Baseline in UAS7 at Week 12: LS Mean Diff vs. placebo (95% CI): 1.64 (−10.30, 13.58)
  Change from Baseline in UAS7 at Week 12: Mean (SD): −5.83 (3.06)
[12]
  Change from Baseline in UAS7 at Week 12: LS Mean (SE): 9.24 (6.48)
  Change from Baseline in UAS7 at Week 12: LS Mean Diff vs. placebo (95% CI): −4.33 (−18.30, 9.63)
  Change from Baseline in UAS7 at Week 12: Mean (SD): −10.75 (6.01)
[13]
  Change from Baseline in UAS7 at Week 12: LS Mean (SE): −15.07 (2.33)
  Change from Baseline in UAS7 at Week 12: LS Mean Diff vs. placebo (95% CI): −4.32 (−10.91, 2.27)
  Change from Baseline in UAS7 at Week 12: Mean (SD): −15.60 (12.97)
[14]
  Change from Baseline in UAS7 at Week 12: LS Mean Diff vs. placebo (95% CI): 0.28 (−6.08, 6.64)
  Change from Baseline in UAS7 at Week 12: Mean (SD): −10.91 (9.59)
[15]
  Change from Baseline in UAS7 at Week 12: LS Mean (SE): −18.70 (2.15)
  Change from Baseline in UAS7 at Week 12: LS Mean Diff vs. placebo (95% CI): −7.95 (−14.32, −1.57)
[16]
  Change from Baseline in UAS7 at Week 12: LS Mean (SE): −15.72 (3.24)
  Change from Baseline in UAS7 at Week 12: LS Mean Diff vs. placebo (95% CI): −8.43 (−17.18, 0.33)
  Change from Baseline in UAS7 at Week 12: Mean (SD): −16.26 (11.38)
[17]
  Change from Baseline in UAS7 at Week 12: LS Mean (SE): 8.49 (3.25)
  Change from Baseline in UAS7 at Week 12: LS Mean Diff vs. placebo (95% CI): −1.19 (−10.05, 7.67)
[18]
  Change from Baseline in UAS7 at Week 12: LS Mean (SE): −17.40 (3.01)
  Change from Baseline in UAS7 at Week 12: LS Mean Diff vs. placebo (95% CI): −10.10 (−18.54, −1.65)
  Change from Baseline in UAS7 at Week 12: Mean (SD): −21.03 (13.37)
[19]
  Change from Baseline in UAS7 at Week 12: LS Mean (SE): −14.78 (2.46)
  Change from Baseline in UAS7 at Week 12: LS Mean Diff vs. placebo (95% CI): −6.72 (−13.41, −0.03)
  Change from Baseline in UAS7 at Week 12: Mean (SD): 15.35 (12.23)
[20]
  Change from Baseline in UAS7 at Week 12: LS Mean (SE): −9.07 (2.38)
  Change from Baseline in UAS7 at Week 12: LS Mean Diff vs. placebo (95% CI): −1.01 (−7.60, 5.59)
  Change from Baseline in UAS7 at Week 12: Mean (SD): −10.61 (9.62)
[21]
  Change from Baseline in UAS7 at Week 12: LS Mean (SE): −18.19 (2.47)
  Change from Baseline in UAS7 at Week 12: LS Mean Diff vs. placebo (95% CI): −10.13 (−16.83, −3.44)
  Change from Baseline in UAS7 at Week 12: Mean (SD): −20.66 (12.39)
[22]
  Change from Baseline in UAS7 at Week 12: LS Mean (SE): −13.17 (2.55)
  Change from Baseline in UAS7 at Week 12: LS Mean Diff vs. placebo (95% CI): −1.67 (−8.84, 5.51)
  Change from Baseline in UAS7 at Week 12: Mean (SD): −13.19 (12.80)
[23]
  Change from Baseline in UAS7 at Week 12: LS Mean (SE): −8.97 (2.49)
  Change from Baseline in UAS7 at Week 12: LS Mean Diff vs. placebo (95% CI): 2.53 (−4.52, 9.59)
  Change from Baseline in UAS7 at Week 12: Mean (SD): −9.90 (9.51)
[24]
  Change from Baseline in UAS7 at Week 12: LS Mean (SE): −17.08 (2.69)
  Change from Baseline in UAS7 at Week 12: LS Mean Diff vs. placebo (95% CI): −5.57 (−12.83, 1.69)
